In the supplement of paper PMC12137928:
Where a name gives a salt, the structure may show the parent alone.

Tested on: HCT116
Conditions: 72 h
In short: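 HCT116 cells went into 1536-well plates at 250 per well. CellTiter-Glo luminescence was expressed relative to vehicle (0%) and positive control (-100%) and then pattern-corrected. Both IC50 and maximal efficacy were taken from four-parameter Hill fits.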

`CC(C[N+](C)(C)C)OC(N)=O` (configuration not stated) [Bethanechol chloride] was tested, and the IC50 cell viability (ICRF193 0 nM) was over 45.8 µM and the IC50 cell viability (ICRF193 200 nM) was over 45.8 µM.

`C/N=C(\NC)NCc1ccccc1` [Bethanidine sulfate (2:1)] was tested, and the IC50 cell viability (ICRF193 0 nM) was over 45.8 µM and the IC50 cell viability (ICRF193 200 nM) was over 45.8 µM.

`O=C(O)CNC(=O)CNC(=O)CNC(=O)CSC(=O)c1ccccc1` [Betiatide] showed an IC50 cell viability (ICRF193 0 nM) of over 45.8 µM and an IC50 cell viability (ICRF193 200 nM) of over 45.8 µM.

In the case of `COc1ccc(NC(=O)c2ccc(C(=N)N(C)C)cc2)c(C(=O)Nc2ccc(Cl)cn2)c1` [Betrixaban], the IC50 cell viability (ICRF193 0 nM) was over 45.8 µM and the IC50 cell viability (ICRF193 200 nM) was over 45.8 µM.

`COc1ccc(CCNCC(O)COc2cccc(C)c2)cc1OC` (configuration not stated) [Bevantolol hydrochloride] gave an IC50 cell viability (ICRF193 0 nM) of over 45.8 µM and an IC50 cell viability (ICRF193 200 nM) of over 45.8 µM.

With `C[N+]1(C)CCCCC1COC(=O)C(O)(c1ccccc1)c1ccccc1` (configuration not stated) [Bevonium metilsulfate] the IC50 cell viability (ICRF193 0 nM) was over 45.8 µM and the IC50 cell viability (ICRF193 200 nM) was over 45.8 µM.

`C=C(c1ccc(C(=O)O)cc1)c1cc2c(cc1C)C(C)(C)CCC2(C)C` [Bexarotene] was tested, and the IC50 cell viability (ICRF193 0 nM) was over 45.8 µM and the IC50 cell viability (ICRF193 200 nM) was over 45.8 µM.

`CC(C)(Oc1ccc(CCNC(=O)c2ccc(Cl)cc2)cc1)C(=O)O` [Bezafibrate] was tested, and the IC50 cell viability (ICRF193 0 nM) was over 45.8 µM and the IC50 cell viability (ICRF193 200 nM) was over 45.8 µM.

With `C[C@@H](O)[C@H]1C(=O)N2C(C(=O)[O-])=C(SC3Cn4cnc[n+]4C3)[C@H](C)[C@H]12` (some centres not stated) [Biapenem] the IC50 cell viability (ICRF193 0 nM) was over 45.8 µM and the IC50 cell viability (ICRF193 200 nM) was over 45.8 µM.

`CCOC(=O)[C@H](CS)NCCN[C@@H](CS)C(=O)OCC` [Bicisate dihydrochloride] gave an IC50 cell viability (ICRF193 0 nM) of over 45.8 µM and an IC50 cell viability (ICRF193 200 nM) of over 45.8 µM.

`CCOCCn1c(C2CCN(CCc3ccc(C(C)(C)C(=O)O)cc3)CC2)nc2ccccc21` [Bilastine] showed an IC50 cell viability (ICRF193 0 nM) of over 45.8 µM and an IC50 cell viability (ICRF193 200 nM) of over 45.8 µM.

In the case of `O=C(COCCOCCOCC(=O)Nc1c(I)cc(I)c(C(=O)O)c1I)Nc1c(I)cc(I)c(C(=O)O)c1I` [Biliscopin], the IC50 cell viability (ICRF193 0 nM) was over 45.8 µM and the IC50 cell viability (ICRF193 200 nM) was over 45.8 µM.

With `CCNC(=O)CCC/C=C\C[C@@H]1[C@@H](/C=C/[C@@H](O)CCc2ccccc2)[C@H](O)C[C@@H]1O` [Bimatoprost] the IC50 cell viability (ICRF193 0 nM) was over 45.8 µM and the IC50 cell viability (ICRF193 200 nM) was over 45.8 µM.

In the case of `O=C(O)Cc1cccc(-c2cc(CCCCCCc3ccc(O[C@H]4O[C@H](CO)[C@@H](O)[C@H](O)[C@@H]4O)c(-c4cccc(CC(=O)O)c4)c3)ccc2O[C@H]2O[C@H](CO)[C@@H](O)[C@H](O)[C@@H]2O)c1` [Bimosiamose], the IC50 cell viability (ICRF193 0 nM) was over 45.8 µM and the IC50 cell viability (ICRF193 200 nM) was over 45.8 µM.

In the case of `O=C(O)CCCC[C@@H]1SC[C@@H]2NC(=O)N[C@@H]21` [Biotin], the IC50 cell viability (ICRF193 0 nM) was over 45.8 µM and the IC50 cell viability (ICRF193 200 nM) was over 45.8 µM.

`OC(CCN1CCCCC1)(c1ccccc1)C1CC2C=CC1C2` (configuration not stated) [Biperiden] gave an IC50 cell viability (ICRF193 0 nM) of over 45.8 µM and an IC50 cell viability (ICRF193 200 nM) of over 45.8 µM.

In the case of `C/C(=C(\CCOC(=O)c1ccccc1)SS/C(CCOC(=O)c1ccccc1)=C(/C)N(C=O)Cc1cnc(C)nc1N)N(C=O)Cc1cnc(C)nc1N` [Bisbentiamine], the IC50 cell viability (ICRF193 0 nM) was over 45.8 µM and the IC50 cell viability (ICRF193 200 nM) was over 45.8 µM.

With `CC(=C(CCOC(=O)C(C)C)SSC(CCOC(=O)C(C)C)=C(C)N(C=O)Cc1cnc(C)nc1N)N(C=O)Cc1cnc(C)nc1N` [Bisibutiamine] the IC50 cell viability (ICRF193 0 nM) was over 45.8 µM and the IC50 cell viability (ICRF193 200 nM) was over 45.8 µM.

Compound `O.O.O=C(O)c1cc(O)c2c(c1)[O][Bi][O]2` [Bismuth(III) gallate basic hydrate] has an IC50 cell viability (ICRF193 0 nM) of over 45.8 µM and an IC50 cell viability (ICRF193 200 nM) of over 45.8 µM.

Compound `CC(C)NCC(O)COc1ccc(COCCOC(C)C)cc1` (configuration not stated) [Bisoprolol fumarate] has an IC50 cell viability (ICRF193 0 nM) of over 45.8 µM and an IC50 cell viability (ICRF193 200 nM) of over 45.8 µM.

Work on `Cc1ccc(C(=O)Oc2ccc(C(O)CNC(C)(C)C)cc2OC(=O)c2ccc(C)cc2)cc1` (configuration not stated) [Bitolterol] yielded an IC50 cell viability (ICRF193 0 nM) of over 45.8 µM and an IC50 cell viability (ICRF193 200 nM) of over 45.8 µM.

Compound `CCN1CCN(c2cc(-c3ccc(F)cc3)c3c(n2)CCCCCC3)CC1` [Blonanserin] has an IC50 cell viability (ICRF193 0 nM) of over 45.8 µM and an IC50 cell viability (ICRF193 200 nM) of over 45.8 µM.

Work on `CC(C)(C)NC(=O)N[C@H](C(=O)N1C[C@H]2[C@@H]([C@H]1C(=O)NC(CC1CCC1)C(=O)C(N)=O)C2(C)C)C(C)(C)C` (some centres not stated) [Boceprevir] yielded an IC50 cell viability (ICRF193 0 nM) of over 45.8 µM and an IC50 cell viability (ICRF193 200 nM) of over 45.8 µM.

With `CCC(=O)O[C@@H]1C=C2CC[C@@H]3[C@H](CC[C@]4(C)[C@@H](OC(=O)CC)CC[C@@H]34)C2CC1` (some centres not stated) [Bolandiol dipropionate] the IC50 cell viability (ICRF193 0 nM) was over 45.8 µM and the IC50 cell viability (ICRF193 200 nM) was over 45.8 µM.

In the case of `C=CCCCCCCCCC(=O)O[C@H]1CC[C@H]2[C@@H]3CCC4=CC(=O)C=C[C@]4(C)[C@H]3CC[C@]12C` [Boldenone Undecylenate], the IC50 cell viability (ICRF193 0 nM) was over 45.8 µM and the IC50 cell viability (ICRF193 200 nM) was over 45.8 µM.

`CC(=O)/C=C/C=C1/C2CCC(C2)C1(C)C` (configuration not stated) [Bornelone] was tested, and the IC50 cell viability (ICRF193 0 nM) was over 45.8 µM and the IC50 cell viability (ICRF193 200 nM) was over 45.8 µM.

Compound `COc1ccccc1Oc1c(NS(=O)(=O)c2ccc(C(C)(C)C)cc2)nc(-c2ncccn2)nc1OCCO` [Bosentan] has an IC50 cell viability (ICRF193 0 nM) of over 45.8 µM and an IC50 cell viability (ICRF193 200 nM) of over 45.8 µM.

For `O=c1[nH]c(=O)n([C@@H]2O[C@H](CO)[C@@H](O)[C@@H]2O)cc1/C=C/Br` [Bravavir], the IC50 cell viability (ICRF193 0 nM) was over 45.8 µM and the IC50 cell viability (ICRF193 200 nM) was over 45.8 µM.

In the case of `CC[N+](C)(C)Cc1ccccc1Br` [Bretylium tosylate], the IC50 cell viability (ICRF193 0 nM) was over 45.8 µM and the IC50 cell viability (ICRF193 200 nM) was over 45.8 µM.

Work on `Brc1c(NC2=NCCN2)ccc2nccnc12` [Brimonidine] yielded an IC50 cell viability (ICRF193 0 nM) of over 45.8 µM and an IC50 cell viability (ICRF193 200 nM) of over 45.8 µM.

For `Cc1ccc(Sc2ccccc2N2CCNCC2)c(C)c1` [Brintellix], the IC50 cell viability (ICRF193 0 nM) was over 45.8 µM and the IC50 cell viability (ICRF193 200 nM) was over 45.8 µM.

In the case of `CCN[C@H]1CN(CCCOC)S(=O)(=O)c2sc(S(N)(=O)=O)cc21` [Brinzolamide], the IC50 cell viability (ICRF193 0 nM) was over 45.8 µM and the IC50 cell viability (ICRF193 200 nM) was over 45.8 µM.

With `CCC[C@@H]1CC(=O)N([C@@H](CC)C(N)=O)C1` [Brivaracetam] the IC50 cell viability (ICRF193 0 nM) was over 45.8 µM and the IC50 cell viability (ICRF193 200 nM) was over 45.8 µM.

In the case of `Nc1c(CC(=O)O)cccc1C(=O)c1ccc(Br)cc1` [Bromfenac sodium sesquihydrate], the IC50 cell viability (ICRF193 0 nM) was over 45.8 µM and the IC50 cell viability (ICRF193 200 nM) was over 45.8 µM.

Compound `CN(Cc1cc(Br)cc(Br)c1N)C1CCCCC1` [Bromhexine hydrochloride] has an IC50 cell viability (ICRF193 0 nM) of over 45.8 µM and an IC50 cell viability (ICRF193 200 nM) of over 45.8 µM.

`CC(C)C(Br)C(=O)NC(N)=O` (configuration not stated) [Bromisovalum] showed an IC50 cell viability (ICRF193 0 nM) of over 45.8 µM and an IC50 cell viability (ICRF193 200 nM) of over 45.8 µM.

`CN(C)CCOC(c1ccccc1)c1ccc(Br)cc1` (configuration not stated) [Bromodiphenhydramine] was tested, and the IC50 cell viability (ICRF193 0 nM) was over 45.8 µM and the IC50 cell viability (ICRF193 200 nM) was over 45.8 µM.

In the case of `CN(C)CCC(c1ccc(Br)cc1)c1ccccn1` (configuration not stated) [Brompheniramine (maleate)], the IC50 cell viability (ICRF193 0 nM) was over 45.8 µM and the IC50 cell viability (ICRF193 200 nM) was over 45.8 µM.

For `Nc1nc(=O)c(Br)c(-c2ccccc2)[nH]1` [Bropirimine], the IC50 cell viability (ICRF193 0 nM) was over 45.8 µM and the IC50 cell viability (ICRF193 200 nM) was over 45.8 µM.

`Cc1nnc2n1-c1sc(Br)cc1C(c1ccccc1Cl)=NC2` [Brotizolam] showed an IC50 cell viability (ICRF193 0 nM) of over 45.8 µM and an IC50 cell viability (ICRF193 200 nM) of over 45.8 µM.

In the case of `COc1cc2c(cc1OC)C13CC[N+]4([O-])CC5=CCOC6CC(=O)N2C1C6C5CC34` (configuration not stated) [Brucine-N-oxide], the IC50 cell viability (ICRF193 0 nM) was over 45.8 µM and the IC50 cell viability (ICRF193 200 nM) was over 45.8 µM.

Work on `CC(C)(S)C(=O)N[C@@H](CS)C(=O)O` [Bucillamine] yielded an IC50 cell viability (ICRF193 0 nM) of over 45.8 µM and an IC50 cell viability (ICRF193 200 nM) of over 45.8 µM.

Work on `CCCCC1C(=O)NC(=O)N(C2CCCCC2)C1=O` (configuration not stated) [Bucolome] yielded an IC50 cell viability (ICRF193 0 nM) of over 45.8 µM and an IC50 cell viability (ICRF193 200 nM) of over 45.8 µM.

With `CCCC1O[C@@H]2C[C@H]3[C@@H]4CCC5=CC(=O)C=C[C@]5(C)[C@H]4[C@@H](O)C[C@]3(C)[C@]2(C(=O)CO)O1` (some centres not stated) [Budesonide] the IC50 cell viability (ICRF193 0 nM) was over 45.8 µM and the IC50 cell viability (ICRF193 200 nM) was over 45.8 µM.

With `CC(C)=C/C(C)=N/Nc1nncc2ccccc12` [Budralazine] the IC50 cell viability (ICRF193 0 nM) was over 45.8 µM and the IC50 cell viability (ICRF193 200 nM) was over 45.8 µM.

`CC(C)(C)NCC(O)COc1ccccc1OCC1CCCO1` (configuration not stated) [Bufetolol] was tested, and the IC50 cell viability (ICRF193 0 nM) was over 45.8 µM and the IC50 cell viability (ICRF193 200 nM) was over 45.8 µM.
